From US11339130B1 (Blade Therapeutics, Inc., priority 2016, dated 2022)
Read-outs that look alike come from different tables or passages of the source.

What was measured:
Format in all cases: biochemical
Human Calpain 2/NS1 = biological target: T1, Human Calpain 2/NS1 (Homo sapiens, UniProt P17655); test: Calpain inhibition continuous fluorescence (FRET) assay, Human Calpain 2/NS1; conditions: read-out: Human Calpain 2/NS1 IC50
T1 sequence (P17655 1-700): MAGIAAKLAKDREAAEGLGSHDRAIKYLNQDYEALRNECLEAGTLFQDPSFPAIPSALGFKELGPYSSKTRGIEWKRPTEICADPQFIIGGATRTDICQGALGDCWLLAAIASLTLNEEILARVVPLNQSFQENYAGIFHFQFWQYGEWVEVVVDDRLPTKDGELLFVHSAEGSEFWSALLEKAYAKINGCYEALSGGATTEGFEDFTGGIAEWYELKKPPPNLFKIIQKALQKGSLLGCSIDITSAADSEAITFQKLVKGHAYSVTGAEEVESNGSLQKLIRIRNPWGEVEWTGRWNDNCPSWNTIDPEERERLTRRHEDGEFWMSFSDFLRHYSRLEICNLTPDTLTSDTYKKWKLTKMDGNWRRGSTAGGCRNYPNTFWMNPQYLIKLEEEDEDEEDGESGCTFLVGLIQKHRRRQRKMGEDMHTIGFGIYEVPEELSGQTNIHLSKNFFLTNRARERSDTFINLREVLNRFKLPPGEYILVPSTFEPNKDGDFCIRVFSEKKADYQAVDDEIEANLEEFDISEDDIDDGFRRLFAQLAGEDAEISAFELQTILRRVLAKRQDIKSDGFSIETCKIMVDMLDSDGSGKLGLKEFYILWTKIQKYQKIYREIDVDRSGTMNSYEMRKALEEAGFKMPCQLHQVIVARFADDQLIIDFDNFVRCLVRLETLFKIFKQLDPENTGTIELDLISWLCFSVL
T1 sequence (P04632 1-268 partner): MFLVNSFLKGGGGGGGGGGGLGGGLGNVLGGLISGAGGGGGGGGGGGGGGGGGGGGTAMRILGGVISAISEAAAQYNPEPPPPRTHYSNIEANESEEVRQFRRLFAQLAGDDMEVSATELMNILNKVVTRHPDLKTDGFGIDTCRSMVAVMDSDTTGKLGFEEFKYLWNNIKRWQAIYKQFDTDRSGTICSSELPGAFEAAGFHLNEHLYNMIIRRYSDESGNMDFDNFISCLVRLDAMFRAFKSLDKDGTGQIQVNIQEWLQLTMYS
How it was run: (§1)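 Human calpains 1, 2 and 9 preincubated with inhibitor at 25 °C in 50 mM Tris pH 7.5, 100 mM NaCl, 1 mM DTT; reaction started with 5-FAM/QXL 520 FRET peptide plus CaCl2 for activation. Fluorescence (490/520 nm) followed 10 min; rates from 1-5 min slopes fitted to 4-parameter logistic for IC50.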

Human Calpain 1/NS1 = biological target: T2, Human Calpain 1/NS1 (Homo sapiens, UniProt P07384); test: Calpain inhibition continuous fluorescence (FRET) assay, Human Calpain 1/NS1; conditions: read-out: Human Calpain 1/NS1 IC50
T2 sequence (P07384 1-714): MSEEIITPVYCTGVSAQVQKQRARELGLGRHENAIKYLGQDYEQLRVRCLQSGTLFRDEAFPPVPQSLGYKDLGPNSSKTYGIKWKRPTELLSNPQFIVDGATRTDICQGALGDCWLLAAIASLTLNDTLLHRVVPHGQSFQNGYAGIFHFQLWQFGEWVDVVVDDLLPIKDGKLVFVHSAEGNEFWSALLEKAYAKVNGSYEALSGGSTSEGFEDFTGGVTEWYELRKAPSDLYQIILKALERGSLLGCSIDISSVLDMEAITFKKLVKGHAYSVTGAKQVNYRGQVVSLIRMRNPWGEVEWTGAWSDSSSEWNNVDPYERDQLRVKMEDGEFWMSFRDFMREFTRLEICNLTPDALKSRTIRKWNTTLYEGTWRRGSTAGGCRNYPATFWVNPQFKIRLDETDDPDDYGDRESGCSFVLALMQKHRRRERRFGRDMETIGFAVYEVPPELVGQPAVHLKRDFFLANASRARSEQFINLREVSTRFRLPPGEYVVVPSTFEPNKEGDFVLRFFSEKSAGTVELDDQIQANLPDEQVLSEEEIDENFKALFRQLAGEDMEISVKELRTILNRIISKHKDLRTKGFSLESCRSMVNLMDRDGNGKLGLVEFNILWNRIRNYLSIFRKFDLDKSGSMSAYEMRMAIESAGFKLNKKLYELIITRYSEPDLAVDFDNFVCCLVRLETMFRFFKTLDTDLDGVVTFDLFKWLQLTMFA
T2 sequence (P04632 1-268 partner): T1 sequence (P04632 1-268 partner)
How it was run: as §1

Human Calpain 9/NS1 = biological target: T3, Human Calpain 9/NS1 (Homo sapiens, UniProt O14815); test: Calpain inhibition continuous fluorescence (FRET) assay, Human Calpain 9/NS1; conditions: read-out: Human Calpain 9/NS1 IC50
T3 sequence (O14815 1-690): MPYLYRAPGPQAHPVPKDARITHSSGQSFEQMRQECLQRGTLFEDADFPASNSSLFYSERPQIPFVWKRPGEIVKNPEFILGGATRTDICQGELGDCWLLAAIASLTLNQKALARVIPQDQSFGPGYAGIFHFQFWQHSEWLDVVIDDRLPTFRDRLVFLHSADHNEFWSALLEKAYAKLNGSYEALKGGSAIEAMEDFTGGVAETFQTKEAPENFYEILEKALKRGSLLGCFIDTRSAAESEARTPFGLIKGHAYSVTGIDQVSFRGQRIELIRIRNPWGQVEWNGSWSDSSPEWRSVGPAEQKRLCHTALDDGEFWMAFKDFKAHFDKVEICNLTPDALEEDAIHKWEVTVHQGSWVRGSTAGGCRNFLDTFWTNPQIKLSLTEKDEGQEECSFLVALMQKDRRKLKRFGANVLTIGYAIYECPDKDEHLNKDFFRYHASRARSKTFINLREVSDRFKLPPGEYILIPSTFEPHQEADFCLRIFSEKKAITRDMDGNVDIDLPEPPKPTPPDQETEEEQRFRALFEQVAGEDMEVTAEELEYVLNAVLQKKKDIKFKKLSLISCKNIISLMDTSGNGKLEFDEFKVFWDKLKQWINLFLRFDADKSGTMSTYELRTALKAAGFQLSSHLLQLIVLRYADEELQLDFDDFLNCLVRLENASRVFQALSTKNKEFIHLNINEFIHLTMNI
T3 sequence (P04632 1-268 partner): T1 sequence (P04632 1-268 partner)
How it was run: as §1

Compound | IC50 (Human Calpain 2/NS1; Column B) [µM] | IC50 (Human Calpain 1/NS1; Column A) [µM] | IC50 (Human Calpain 9/NS1; Column C) [µM] | IC50 (Human Calpain 2/NS1) [µM] | IC50 (Human Calpain 1/NS1) [µM] | IC50 (Human Calpain 9/NS1) [µM]
O=C(NC1CC1)C(=O)[C@H](Cc1ccccc1)NC(=O)c1scnc1-n1cc2ccccc2n1 [Compound 64, (S)—N-(4-(cyclopropylamino)-3,4-dioxo-1-phenylbutan-2-yl)-4-(2H-indazol-2-yl)thiazole-5-carboxamide] | < 3 | < 3 | < 3 |  |  | 
NC(=O)C(=O)[C@H](Cc1ccccc1)NC(=O)[C@@H]1C[C@@H](OCc2ccccc2)CN1c1ccccc1 [Compound 220, (2S,4R)—N—((S)-4-amino-3,4-dioxo-1-phenylbutan-2-yl)-4-(benzyloxy)-1-phenylpyrrolidine-2-carboxamide] | < 3 | < 3 | 3 to 10 |  |  | 
O=C(NC1CC1)C(=O)[C@H](Cc1ccccc1)NC(=O)c1sc(C2CC2)nc1-c1ccccc1 [Compound 135, (S)-2-cyclopropyl-N-(4-(cyclopropylamino)-3,4-dioxo-1-phenylbutan-2-yl)-4-phenylthiazole-5-carboxamide] | < 3 | < 3 | > 10 |  |  | 
Cc1nsc(-c2ccccc2)c1C(=O)N[C@@H](Cc1ccccc1)C(=O)C(N)=O [Compound 96, (S)—N-(4-amino-3,4-dioxo-1-phenylbutan-2-yl)-3-methyl-5-phenylisothiazole-4-carboxamide] | < 3 | < 3 | < 3 |  |  | 
O=C(NC1CC1)C(=O)[C@H](Cc1ccccc1)NC(=O)c1scnc1-n1ncc2ccccc21 [Compound 86, (S)—N-(4-(cyclopropylamino)-3,4-dioxo-1-phenylbutan-2-yl)-4-(1H-indazol-1-yl)thiazole-5-carboxamide] | < 3 | < 3 | < 3 |  |  | 
Cc1nc(-c2cccc3c2OC(F)(F)O3)c(C(=O)NC(Cc2ccccc2)C(=O)C(N)=O)o1 (stereo not drawn) [Compound 618, N-(4-amino-3,4-dioxo-1-phenylbutan-2-yl)-4-(2,2-difluorobenzo[d][1,3]dioxol-4-yl)-2-methyloxazole-5-carboxamide] |  |  |  | < 3 | < 3 | < 3
C=CC[C@H](NC(=O)c1cn(C)nc1-c1ccccc1)C(=O)C(N)=O [Compound 195, N-(1-amino-1,2-dioxohex-5-en-3-yl)-1-methyl-3-phenyl-1H-pyrazole-4-carboxamide] | 3 to 10 | < 3 | < 3 |  |  | 
Cc1cc(C(=O)N[C@@H](Cc2ccccc2)C(=O)C(N)=O)n(-c2nccs2)n1 [Compound 215, (S)—N-(4-amino-3,4-dioxo-1-phenylbutan-2-yl)-3-methyl-1-(thiazol-2-yl)-1H-pyrazole-5-carboxamide] | < 3 | < 3 | < 3 |  |  | 
O=C(NC1CC1)C(=O)[C@H](Cc1ccccc1)NC(=O)c1cncn1-c1nc2ccccc2s1 [Compound 43, (S)-1-(benzo[d]thiazol-2-yl)-N-(4-(cyclopropylamino)-3,4-dioxo-1-phenylbutan-2-yl)-1H-imidazole-5-carboxamide] | < 3 | < 3 | < 3 |  |  | 
Cc1ncn(-c2ccccc2)c1C(=O)N[C@@H](Cc1ccccc1)C(=O)C(N)=O [Compound 290, (S)—N-(4-amino-3,4-dioxo-1-phenylbutan-2-yl)-4-methyl-1-phenyl-1H-imidazole-5-carboxamide] | < 3 | < 3 | < 3 |  |  | 
NC(=O)C(=O)[C@H](Cc1ccccc1)NC(=O)c1cncn1-c1nc2ccccc2[nH]1 [Compound 70, (S)—N-(4-amino-3,4-dioxo-1-phenylbutan-2-yl)-1-(1H-benzo[d]imidazol-2-yl)-1H-imidazole-5-carboxamide] | < 3 | < 3 | < 3 |  |  | 
Cc1cc(C(=O)N[C@@H](Cc2ccccc2)C(=O)C(=O)NC2CC2)n(-c2ncccn2)n1 [Compound 65, (S)—N-(4-(cyclopropylamino)-3,4-dioxo-1-phenylbutan-2-yl)-3-methyl-1-(pyrimidin-2-yl)-1H-pyrazole-5-carboxamide] | > 10 | > 10 | > 10 |  |  | 
Cc1nc(-c2cccc(C(F)(F)F)n2)c(C(=O)NC(Cc2ccccc2)C(=O)C(N)=O)o1 (stereo not drawn) [Compound 287] | 3 to 10 | < 3 | < 3 |  |  | 
NC(=O)C(=O)C(Cc1ccccc1)NC(=O)c1ccn(Cc2ccccc2)n1 (stereo not drawn) [Compound 284, N-(4-amino-3,4-dioxo-1-phenylbutan-2-yl)-1-benzyl-1H-pyrazole-3-carboxamide] | > 10 | > 10 | > 10 |  |  | 
Cc1nc(C(=O)NC(Cc2ccccc2)C(=O)C(N)=O)c(-c2ccccn2)o1 (stereo not drawn) [Compound 314, N-(4-amino-3,4-dioxo-1-phenylbutan-2-yl)-2-methyl-5-(pyridin-2-yl)oxazole-4-carboxamide] |  |  |  | 3 to 10 | 3 to 10 | 3 to 10
NC(=O)C(=O)[C@H](Cc1ccccc1)NC(=O)c1cncn1-c1ccccc1 [Compound 7, (S)—N-(4-amino-3,4-dioxo-1-phenylbutan-2-yl)-1-phenyl-1H-imidazole-5-carboxamide] | < 3 | < 3 | < 3 |  |  | 
Cc1cc(C(=O)N[C@@H](Cc2ccccc2)C(=O)C(=O)NC2CC2)n(-c2cnccn2)n1 [Compound 85, (S)—N-(4-(cyclopropylamino)-3,4-dioxo-1-phenylbutan-2-yl)-3-methyl-1-(pyrazin-2-yl)-1H-pyrazole-5-carboxamide] | < 3 | < 3 | < 3 |  |  | 
O=C(NC1CC1)C(=O)[C@H](Cc1ccccc1)NC(=O)c1cncn1-c1ccc(-c2ncco2)cn1 [Compound 89, (S)—N-(4-(cyclopropylamino)-3,4-dioxo-1-phenylbutan-2-yl)-1-(5-(oxazol-2-yl)pyridin-2-yl)-1H-imidazole-5-carboxamide] | < 3 | < 3 | 3 to 10 |  |  | 
O=C[C@H](Cc1ccccc1)NC(=O)c1cncn1-c1n[nH]c2ccccc12 [Compound 102, (S)-1-(1H-indazol-3-yl)-N-(1-oxo-3-phenylpropan-2-yl)-1H-imidazole-5-carboxamide] | < 3 | < 3 | < 3 |  |  | 
